Measured values taken from US20070183995A1, “Compounds useful as agonists of A2A adenosine receptors, cosmetic compositions with A2A agonists and a method for using the same” (Conopco, Inc., d/b/a Unilever, priority 2006, published 2007).

Tested on: Melanoderm cultures (melanogenesis)
Assay: Melanoderm human skin equivalent lightening test (Hunter Lab L value)
Assay type: cell-based
Conditions: for Average L Value / L Value Range: 3 micromolar in media, dosed 10 times in 3 weeks, Hunter Lab L value, Minolta CR-10 chromameter; for Average L Value: averaged; for L Value Range: triplicate; for ΔL: difference in average Hunter Lab L value, treated vs untreated control cultures, 3 micromolar, 3 weeks
Excerpt: As used herein, ΔL is defined to mean the difference in Hunter Lab L values when comparing three, three (3) week old Mattek Melanoderm cultures that have not been treated with a composition comprising an agonist of A2A receptors to three, three (3) week old Mattek melanoderm cultures that have been treated with a composition comprising an agonist of A2A receptors wherein treated means: • (a) placing the melanoderm culture within a six (6) well tissue culture dish and set about 0.3 cm off of the tissue culture dish; • (b) subjecting the melanoderm culture to a 3 micromolar composition having an agonist of A2A adenosine receptors, the composition being one prepared from a 10 millimolar solution of A2A agonist and carrier (e.g., dimethyl sulfoxide) having been diluted with Dulbecco's Modified Eagle Media; and • (c) comparing the treated and untreated cultures by obtaining average L values for each with a Minolta CR-10 chromameter.
Commercially available human skin equivalents (Melanoderm from Mattek) were obtained for testing the impact of agonists of A2A adenosine receptors on melanogenesis. Solutions having a final concentration of three (3) micromolar were prepared from a 10 millimolar dimethyl sulfoxide stock solution and dosed ten (10) times in a three (3) week period into the media of the melanoderm cultures. The media consisted of commercially available basal Dulbecco's Modified Eagles media, prepared and treated in the manner set forth in the manufacture's instructions. For long term maintenance of the Melanoderms, the basal media was supplemented with bFGF and alpha MSH to stimulate melanocyte growth and melanogenesis. Each treatment condition was done in triplicate and three (3) sets were made for each treatment, as well as for a control (culture not treated with the agonist). The cultures were maintained at a temperature of about 37° C. and stored in a humidified, 5% CO2 incubator during the dosing period, but removed while being dosed.
After a three (3) week period, Hunter lab L value readings were taken for each condition (with a.Minolta CR-10 chromameter) and then averaged.

| SMILES | Average L Value | L Value Range | ΔL |
| --- | --- | --- | --- |
| CCNC(=O)[C@H]1O[C@@H](n2cnc3c(N)nc(NCCc4ccc(CCC(=O)O)cc4)nc32)[C@H](O)[C@@H]1O [Agonist 1, 2-para(2-carboxyethyl)phenethylamino-5′-N-ethyl carboxamido adenosine] | 31.9 | 30.3-33.3 | 1.7 |
| Nc1nc(Nc2ccccc2)nc2c1ncn2[C@@H]1O[C@H](CO)[C@@H](O)[C@H]1O [Agonist 2, phenylaminoadenosine] | 43.8 | 43.2-44.2 | 5.2 |
